Columns and labels:
[1] = system: locally advanced or metastatic NSCLC (PD-L1-unselected patients); assay: POPLAR Phase II randomized trial, atezolizumab vs docetaxel, in 2L+ PD-L1-unselected NSCLC, efficacy by tTMB; type: in vivo, human
Description: (§1) Patients were eligible for enrollment in the POPLAR study if they had locally advanced or metastatic (e.g., stage IIIB, stage IV, or recurrent) NSCLC; disease progression during or following treatment with a prior platinum-containing regimen for locally advanced, unresectable/inoperable, or metastatic NSCLC, or disease recurrence within 6 months of treatment with a platinum-based adjuvant/neoadjuvant regimen; measurable disease, as defined by RECIST v1.1; and an ECOG performance status of 0 or 1. Participants were randomized to receive either atezolizumab at a dose of 1200 mg intravenously every three weeks or docetaxel 75 mg per meter square (mg/m^2) intravenously every three weeks. Treatment with atezolizumab could be continued as long as participants were experiencing clinical benefit, i.e., in the absence of unacceptable toxicity or symptomatic deterioration attributed to disease progression. Pre-treatment tumor samples from patients in the Phase III OAK trial (Clinical Trial ID No.: NCT02008227) were also evaluated for tTMB. Patients were eligible for enrollment in the OAK study if they had locally advanced or metastatic (e.g., stage IIIB, stage IV, or recurrent) NSCLC; disease progression during or following treatment with a prior platinum-containing regimen for locally advanced, unresectable/inoperable, or metastatic NSCLC, or disease recurrence within 6 months of treatment with a platinum-based adjuvant/neoadjuvant regimen; measurable disease, as defined by RECIST v1.1; and an ECOG performance status of 0 or 1. Participants were randomized to receive either atezolizumab at a dose of 1200 mg intravenously every three weeks or docetaxel 75 mg per square meter (mg/m^2) intravenously every three weeks. Treatment with atezolizumab could be continued as long as participants were experiencing clinical benefit, i.e., in the absence of unacceptable toxicity or symptomatic deterioration attributed to disease progression.
Data from the single-arm, PD-L1-selected trials BIRCH and FIR were combined and analyzed to examine the association between tTMB and clinical outcomes among PD-L1-selected patients. Data from the randomized, PD-L1-unselected trial, POPLAR, were analyzed separately and treatment effects between the atezolizumab- and docetaxel-treatment arms were compared.
To identify somatic mutations, tumor samples (e.g., archival tumor samples) were processed as described in Frampton et al. Nat. Biotechnol. 31:1023-31, 2013. Sequencing libraries were constructed to sequence and analyze samples. In addition to standard mutation processing, a mutation load estimation algorithm was applied that, based on the number of somatic mutations and/or rearrangements detected in Table 1 or Table 2, respectively, extrapolates to the exome or the genome as a whole. For purposes of mutation load estimation, all coding short variant alterations, base substitutions, and indels detected in the genes listed in Table 1 and Table 2 were counted. Further, all coding alterations (base substitutions and indels), including synonymous alterations, with the exception of known oncogenic driver mutations, in the genes listed in Table 1 and Table 2 were counted. However, numerous classes of detected alterations were not counted: non-coding alterations; alterations with known (occurring as known somatic alterations in the COSMIC database (Forbes et al. (2014) Nucl. Acids Res. 43:D805-11) and likely (truncations in tumor suppressor genes) functional status; known germline alterations in the dbSNP database (Sherry et al. (2001) Nucleic Acids Res. 29(1):308-11); germline alterations occurring with two or more counts in the ExAC database (Exome Aggregation Consortium (ExAC), Cambridge, Mass.); alterations that are predicted to be germline in the specimen being assessed; and alterations that are predicted to be germline in a cohort of >60,000 clinical specimens. […]

[2] = system: locally advanced or metastatic NSCLC; assay: OAK Phase III randomized trial, atezolizumab vs docetaxel, in 2L+ NSCLC, efficacy by tTMB; type: in vivo, human; settings: 2L+ OAK
Description: as §1
To identify somatic mutations, tumor samples (e.g., archival tumor samples) were processed as described in Frampton et al. Nat. Biotechnol. 31:1023-31, 2013. Sequencing libraries were constructed to sequence and analyze samples. In addition to standard mutation processing, a mutation load estimation algorithm was applied that, based on the number of somatic mutations and/or rearrangements detected in Table 1 or Table 2, respectively, extrapolates to the exome or the genome as a whole. For purposes of mutation load estimation, all coding short variant alterations, base substitutions, and indels detected in the genes listed in Table 1 and Table 2 were counted. Further, all coding alterations (base substitutions and indels), including synonymous alterations, with the exception of known oncogenic driver mutations, in the genes listed in Table 1 and Table 2 were counted. However, numerous classes of detected alterations were not counted: non-coding alterations; alterations with known (occurring as known somatic alterations in the COSMIC database (Forbes et al. (2014) Nucl. Acids Res. 43:D805-11) and likely (truncations in tumor suppressor genes) functional status; known germline alterations in the dbSNP database (Sherry et al. (2001) Nucleic Acids Res. 29(1):308-11); germline alterations occurring with two or more counts in the ExAC database (Exome Aggregation Consortium (ExAC), Cambridge, Mass.); alterations that are predicted to be germline in the specimen being assessed; and alterations that are predicted to be germline in a cohort of >60,000 clinical specimens. Finally, to calculate the mutation load per megabase, the total number of mutations counted was divided by the coding region target territory of the test, which was 1.110 megabases (Mb) for the current version of the test. The average median coverage value for all samples was 490.
The BEP was defined as patients with at least one tTMB measurement from a baseline tumor sample. […]

[3] = BEP (evaluable for TMB) (n = 174 atezolizumab, 186 docetaxel)
[4] = tTMB score <9 mut/Mb (n = 91 atezolizumab, 87 docetaxel)
[5] = tTMB score <16 mut/Mb (n = 135 atezolizumab, 136 docetaxel)
[6] = tTMB score ≥9 mut/Mb (n = 83 atezolizumab, 99 docetaxel)
[7] = tTMB score ≥16 mut/Mb (n = 39 atezolizumab, 50 docetaxel)

SMILES: CC(=O)O[C@@]12CO[C@@H]1C[C@H](O)[C@@]1(C)C(=O)[C@H](O)C3=C(C)[C@@H](OC(=O)[C@H](O)[C@@H](NC(=O)OC(C)(C)C)c4ccccc4)C[C@@](O)([C@@H](OC(=O)c4ccccc4)[C@H]21)C3(C)C [docetaxel]
- ORR (confirmed per RECIST v1.1) with increasing tTMB ([1]; POPLAR, per treatment arm): did not experience improvement in ORR
- ORR ([1]; POPLAR, BEP (n = 54 atezolizumab vs 38 docetaxel)): 15%
- ORR ([1]; POPLAR, ITT (n = 144 atezolizumab vs 143 docetaxel)): 15% vs 15%
- ORR ([1]; POPLAR, tTMB quantile ≥25%): 10%
- ORR ([1]; POPLAR, tTMB quantile ≥50% (median)): 4%
- ORR ([1]; POPLAR, tTMB quantile ≥75%): 8%
- association of tissue TMB with efficacy ([1]; docetaxel arm, 2L+ NSCLC, randomized setting): not associated with the efficacy
- Median OS [2, 3]: 9.8 months
- Median PFS [2, 3]: 3.81 months
- Median OS ([2]; ITT (n = 425 per arm)): 9.6 months
- Median PFS ([2]; ITT (n = 425 per arm)): 4.0 months
- Median OS [2, 4]: 10.8 months
- Median PFS [2, 4]: 4.1 months
- Median OS [2, 5]: 10.1 months
- Median PFS [2, 5]: 4.0 months
- Median OS [2, 6]: 9.7 months
- Median PFS [2, 6]: 3.6 months
- Median OS [2, 7]: 9.7 months
- Median PFS [2, 7]: 3.5 months
